The values below come from ChEMBL document CHEMBL2046378, “Investigation of chalcones as selective inhibitors of the breast cancer resistance protein: critical role of methoxylation in both inhibition potency and cytotoxicity” (J Med Chem, 2012).

Data set [1] has as its target T1, ABCG2 (Homo sapiens, UniProt Q9UNQ0).
T1 sequence (Q9UNQ0 whole entry): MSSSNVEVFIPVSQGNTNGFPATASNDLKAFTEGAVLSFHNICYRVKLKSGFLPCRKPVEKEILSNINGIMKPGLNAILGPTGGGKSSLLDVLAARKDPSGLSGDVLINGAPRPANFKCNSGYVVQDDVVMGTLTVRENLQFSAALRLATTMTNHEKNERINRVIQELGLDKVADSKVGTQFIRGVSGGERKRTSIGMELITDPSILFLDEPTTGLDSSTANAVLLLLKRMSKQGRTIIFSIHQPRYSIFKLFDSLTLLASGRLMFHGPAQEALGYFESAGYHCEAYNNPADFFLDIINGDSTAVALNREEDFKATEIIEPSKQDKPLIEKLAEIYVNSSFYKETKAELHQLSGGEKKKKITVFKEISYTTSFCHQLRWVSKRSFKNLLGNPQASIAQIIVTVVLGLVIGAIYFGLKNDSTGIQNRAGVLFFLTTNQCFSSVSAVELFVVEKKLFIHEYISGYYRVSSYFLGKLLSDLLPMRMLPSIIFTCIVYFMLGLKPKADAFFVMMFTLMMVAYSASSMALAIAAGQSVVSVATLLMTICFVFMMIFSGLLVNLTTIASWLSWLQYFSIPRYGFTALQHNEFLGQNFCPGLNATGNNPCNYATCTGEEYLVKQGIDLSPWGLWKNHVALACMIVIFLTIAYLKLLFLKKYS
Description: Inhibition of ABCG2-mediated mitoxantrone efflux expressed in HEK293 cells at 2 uM after 48 hrs by flow cytometric analysis. The data set is classed as cell-based. The conditions noted are these: HEK293 cells expressing ABCG2, probe mitoxantrone. Background: Flow cytometry measures light scatter and fluorescence of single cells or particles in a stream.

In data set [2] the target is T1, ABCG2. Description: Inhibition of ABCG2-mediated mitoxantrone efflux expressed in HEK293 cells at 10 uM after 48 hrs by flow cytometric analysis. The note with it: HEK293 cells expressing ABCG2, probe mitoxantrone. The data set is classed as cell-based.
The target in data set [3] is T2, Broad substrate specificity ATP-binding cassette transporter ABCG2 (Homo sapiens, UniProt Q9UNQ0).
T2 sequence (Q9UNQ0 whole entry): T1 sequence (Q9UNQ0 whole entry)
Description: Inhibition of ABCG2-mediated mitoxantrone efflux expressed in HEK293 cells after 48 hrs by flow cytometric analysis. The data set is classed as cell-based.

For data set [4], the target named is ATP-dependent translocase ABCB1 (Homo sapiens, UniProt P08183). Description: Inhibition of ABCB1-mediated mitoxantrone efflux expressed in HEK293 cells at 10 uM after 48 hrs by flow cytometric analysis. It counts as cell-based. The conditions noted are these: hek293, 48 h.
In data set [5] the target is Multidrug resistance-associated protein 1 (Homo sapiens, UniProt P33527). Description: Inhibition of ABCC1-mediated calcein transport expressed in human HEK293 cells at 10 uM after 48 hrs by flow cytometric analysis. The data set is classed as cell-based. The note with it: hek293, 48 h.
The test system of the next data set is HEK293. Description: Cytotoxicity against human HEK293 cells transfected with ABCG2 up to 100 uM after 72 hrs by MTT assay. The note with it: hek293, 72 h. It counts as ADME, cell-based. In general terms: Tetrazolium dyes change colour on reduction, which living cells bring about.
Data set [6] in a line: Cytotoxicity against human HEK293 cells transfected with ABCG2 after 72 hrs by MTT assay. The note with it: read-out: IG50. The data set is classed as ADME, cell-based.
Data set [7] concerns ABCG2. Description: Therapeutic index, ratio of IG50 for HEK293 cells to IC50 for ABCG2. It counts as cell-based. The note with it: human, read-out: TI.
The target in data set [8] is T1, ABCG2. The experiment in a line: Inhibition of ABCG2-mediated mitoxantrone efflux expressed in HEK293 cells at 5 uM after 48 hrs by flow cytometric analysis. The conditions noted are these: HEK293 cells expressing ABCG2, probe mitoxantrone. It counts as cell-based.

What is called inhibition is the relative decrease from the control value, in per cent. The term IC50 denotes the midpoint of a concentration-inhibition curve. Low values mean greater potency in that assay, high ones weaker potency in that assay.

Chain of ATP-dependent translocase ABCB1 (P08183 whole entry): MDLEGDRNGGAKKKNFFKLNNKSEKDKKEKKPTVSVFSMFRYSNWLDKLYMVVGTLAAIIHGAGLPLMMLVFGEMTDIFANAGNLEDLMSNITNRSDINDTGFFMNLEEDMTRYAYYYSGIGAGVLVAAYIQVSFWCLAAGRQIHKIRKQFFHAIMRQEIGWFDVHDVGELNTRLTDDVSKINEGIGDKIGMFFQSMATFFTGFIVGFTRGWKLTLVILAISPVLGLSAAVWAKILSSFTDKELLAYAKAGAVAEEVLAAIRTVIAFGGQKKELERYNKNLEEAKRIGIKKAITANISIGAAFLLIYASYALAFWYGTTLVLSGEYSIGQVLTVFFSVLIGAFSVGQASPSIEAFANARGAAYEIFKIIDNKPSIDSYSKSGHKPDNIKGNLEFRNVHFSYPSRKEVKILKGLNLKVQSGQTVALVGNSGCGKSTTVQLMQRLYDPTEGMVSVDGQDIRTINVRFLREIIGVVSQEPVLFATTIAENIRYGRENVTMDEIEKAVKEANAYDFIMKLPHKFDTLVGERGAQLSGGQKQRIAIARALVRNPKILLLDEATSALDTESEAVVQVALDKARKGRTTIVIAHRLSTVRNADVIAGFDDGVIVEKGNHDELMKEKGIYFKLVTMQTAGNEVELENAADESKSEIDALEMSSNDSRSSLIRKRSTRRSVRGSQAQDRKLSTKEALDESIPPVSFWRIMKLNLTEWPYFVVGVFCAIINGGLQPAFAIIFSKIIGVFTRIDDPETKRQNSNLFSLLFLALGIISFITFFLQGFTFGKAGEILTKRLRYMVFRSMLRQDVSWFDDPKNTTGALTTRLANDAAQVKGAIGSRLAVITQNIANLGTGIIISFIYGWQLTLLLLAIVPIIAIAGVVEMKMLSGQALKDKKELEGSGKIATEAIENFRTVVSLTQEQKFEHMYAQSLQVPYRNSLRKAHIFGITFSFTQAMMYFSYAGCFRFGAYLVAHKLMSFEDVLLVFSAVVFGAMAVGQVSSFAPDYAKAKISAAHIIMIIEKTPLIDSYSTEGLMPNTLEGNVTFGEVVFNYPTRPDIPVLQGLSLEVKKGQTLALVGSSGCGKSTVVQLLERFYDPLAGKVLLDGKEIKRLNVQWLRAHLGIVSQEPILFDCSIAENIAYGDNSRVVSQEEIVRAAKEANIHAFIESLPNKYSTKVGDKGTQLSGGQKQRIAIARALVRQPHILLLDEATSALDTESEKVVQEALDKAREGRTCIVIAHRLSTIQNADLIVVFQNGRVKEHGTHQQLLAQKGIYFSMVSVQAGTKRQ
Chain of Multidrug resistance-associated protein 1 (P33527 whole entry): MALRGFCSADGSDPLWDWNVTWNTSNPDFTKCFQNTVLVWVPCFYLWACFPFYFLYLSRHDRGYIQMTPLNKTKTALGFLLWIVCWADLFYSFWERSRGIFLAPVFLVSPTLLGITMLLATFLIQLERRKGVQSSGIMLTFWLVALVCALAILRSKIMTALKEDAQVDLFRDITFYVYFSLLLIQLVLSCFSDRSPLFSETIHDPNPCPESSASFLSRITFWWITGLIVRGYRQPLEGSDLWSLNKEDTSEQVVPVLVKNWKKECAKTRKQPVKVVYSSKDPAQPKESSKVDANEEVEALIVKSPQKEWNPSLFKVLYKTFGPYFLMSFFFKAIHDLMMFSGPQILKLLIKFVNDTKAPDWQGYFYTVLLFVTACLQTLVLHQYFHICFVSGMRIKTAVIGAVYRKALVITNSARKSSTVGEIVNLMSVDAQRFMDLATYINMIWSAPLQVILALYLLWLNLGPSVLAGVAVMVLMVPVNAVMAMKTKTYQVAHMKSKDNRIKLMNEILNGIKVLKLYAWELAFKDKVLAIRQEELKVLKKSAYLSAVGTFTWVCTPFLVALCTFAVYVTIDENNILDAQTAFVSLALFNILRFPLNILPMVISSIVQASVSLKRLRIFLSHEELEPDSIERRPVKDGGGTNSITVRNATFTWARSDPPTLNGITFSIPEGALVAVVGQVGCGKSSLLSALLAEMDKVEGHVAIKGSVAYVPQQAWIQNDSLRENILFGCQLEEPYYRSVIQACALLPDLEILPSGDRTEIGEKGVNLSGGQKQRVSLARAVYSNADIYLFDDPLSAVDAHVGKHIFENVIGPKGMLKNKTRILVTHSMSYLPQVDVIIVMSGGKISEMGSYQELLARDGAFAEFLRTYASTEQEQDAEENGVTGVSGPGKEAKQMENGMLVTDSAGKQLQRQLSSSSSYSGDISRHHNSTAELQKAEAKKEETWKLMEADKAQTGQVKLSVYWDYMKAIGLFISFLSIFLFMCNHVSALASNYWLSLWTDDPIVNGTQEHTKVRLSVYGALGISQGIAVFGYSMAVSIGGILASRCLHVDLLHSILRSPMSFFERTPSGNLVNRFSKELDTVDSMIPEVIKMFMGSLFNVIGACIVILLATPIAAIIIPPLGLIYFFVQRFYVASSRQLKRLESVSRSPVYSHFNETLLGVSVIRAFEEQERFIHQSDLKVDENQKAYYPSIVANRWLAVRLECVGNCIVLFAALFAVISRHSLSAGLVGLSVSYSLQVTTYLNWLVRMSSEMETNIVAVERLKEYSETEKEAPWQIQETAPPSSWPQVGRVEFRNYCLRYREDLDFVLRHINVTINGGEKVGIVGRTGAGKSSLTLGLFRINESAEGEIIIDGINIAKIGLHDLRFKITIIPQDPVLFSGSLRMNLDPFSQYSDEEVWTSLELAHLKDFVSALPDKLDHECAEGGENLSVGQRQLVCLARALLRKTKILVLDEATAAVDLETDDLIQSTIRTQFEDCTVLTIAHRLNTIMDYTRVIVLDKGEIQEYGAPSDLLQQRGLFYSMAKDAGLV

As for `COc1ccc(C(=O)/C=C/c2cn(C)c3ccccc23)cc1`, at ABCG2 [1], the inhibition at 48 h, 2 µM was found to be 55.5%. Besides, the inhibition at 48 h, 10 µM on ABCG2 [2] was 89%.
On the same counts, the results for `COc1ccc(/C=C/C(=O)c2cn(C)c3ccccc23)c(OC)c1` are 83.8% and 108%.
Regarding `COc1cccc(OC)c1/C=C/C(=O)c1cn(C)c2ccccc12`, the inhibition at 48 h, 2 µM against ABCG2 [1] was 104%. The inhibition at 48 h, 10 µM on ABCG2 [2] is 113%. Besides, in [3], the IC50 stood at 270 nM. The “inhibition (INH)” value in [4] and in data set [5] was “Not Active” throughout. Besides, the Activity entry in the data set with HEK293 was “Non-toxic”. For the same compound, the GI50 at 72 h in data set [6] was 50 µM. Further, the selectivity ratio in the data set with ABCG2 [7] was found to be 185.
Take `COc1cc(OC)c(/C=C/C(=O)c2cn(C)c3ccccc23)c(OC)c1`: the inhibition at 48 h, 2 µM against ABCG2 [1] is 93.8%. For the same compound, the inhibition at 48 h, 10 µM against ABCG2 [2] was 109%. Besides, in [3], the IC50 is 450 nM. For the same compound, the “inhibition (INH)” value in data set [4] and in data set [5] was “Not Active” each time. In addition, in the data set on HEK293, the Activity entry is “Non-toxic”. Besides, the GI50 at 72 h in data set [6] is 4 µM. For the same compound, the selectivity ratio with ABCG2 [7] is 9.
As for `COc1cc(/C=C/C(=O)c2cn(C)c3ccccc23)cc(OC)c1OC`, the inhibition at 48 h, 2 µM at ABCG2 [1] is 49.3%. On ABCG2 [2], the inhibition at 48 h, 10 µM amounted to 70%.
On to `COc1cc(OC)c(/C=C/C(=O)c2cn(C)c3ccc(OC)cc23)c(OC)c1`, for which the inhibition at 48 h, 2 µM against ABCG2 [1] turned out to be 89.1%. Also, on ABCG2 [2], the inhibition at 48 h, 10 µM came out at 111%. The same compound displayed an IC50 in data set [3] of 350 nM. In addition, the “inhibition (INH)” value in [4] and in data set [5] was “Not Active” in each case. The Activity result in the data set on HEK293 is listed as “Non-toxic”. Besides, the GI50 at 72 h in data set [6] came out at 1 µM. Besides, in the data set on ABCG2 [7], the selectivity ratio stood at 3.
For the compound `Cn1cc(/C=C/C(=O)c2cn(C)c3ccccc23)c2ccccc21`, the inhibition at 48 h, 2 µM on ABCG2 [1] is 52.1%. Also, on ABCG2 [2], the inhibition at 48 h, 10 µM is 98.8%.
In the same order, the values of `COc1ccc(C(=O)/C=C/c2cn(C)c3ccccc23)c(OC)c1` are 88.2% and 125%.
As for `COc1cc(OC)c(C(=O)/C=C/c2cn(C)c3ccccc23)c(OC)c1`, the inhibition at 48 h, 2 µM against ABCG2 [1] is 3.7%. Moreover, the inhibition at 48 h, 10 µM at ABCG2 [2] was determined as 30%.
On the same counts, the results for `COc1cccc(OC)c1C(=O)/C=C/c1cn(C)c2ccccc12` are 2.9% and 17.4%.
For `COc1cc(O)c(C(=O)/C=C/c2c(OC)cccc2OC)c(OC)c1`, the concentration for half-maximal inhibition (IC50) in data set [3] turned out to be 350 nM. Further, the “inhibition (INH)” value in data set [4] and in [5] was “Not Active” each time. The Activity entry with HEK293 was “Non-toxic”. The GI50 at 72 h in [6] amounted to 50 µM.
Take `COc1ccc(C(=O)/C=C/c2ccc(OC)c(OC)c2)c(O)c1`: the inhibition at 48 h, 2 µM against ABCG2 [1] is 71.1%. Also, the inhibition at 48 h, 10 µM against ABCG2 [2] is 76.5%.
As for `COc1cc2c(cc1OC)CN(CCc1ccc(NC(=O)c3cccc4c(=O)c5cccc(OC)c5[nH]c34)cc1)CC2`, the inhibition at 48 h, 5 µM at ABCG2 [8] turned out to be 100%.
As to `COc1cc(/C=C/C(=O)c2c(O)cc(OC)cc2OC)cc(OC)c1`, in data set [3], the IC50 came to 170 nM. Further, the “inhibition (INH)” value in [4] and in data set [5] was “Not Active” each time. The Activity result with HEK293 was “Non-toxic”. The GI50 at 72 h in [6] was 6 µM.
For the compound `COc1cccc(/C=C/C(=O)c2c(O)cc(OC)cc2OC)c1`, in data set [3], the IC50 was 260 nM. Besides, the “inhibition (INH)” value in data set [4] and in [5] was “Not Active” throughout. In the data set with HEK293, the Activity entry is “Non-toxic”. Further, the GI50 at 72 h in [6] amounted to 10 µM.
